Data reported in patent US8853207B2 (Development Center for Biotechnology, priority 2012, dated 2014).

molecular target: FLT3 kinase (FLT3 kinase domain alone, Upstate) (Homo sapiens (Human), UniProt P36888); assay: FLT3 kinase assay ([33P] incorporation into substrate); format: biochemical; settings: 100 μM ATP, 30° C., 30 minutes; read-out: IC50 against FLT3
Experimental: Inhibition of FLT3 kinase activity by compounds disclosed herein was quantified by measuring the amount of [^33P] incorporated into the substrate in the presence of a test compound. Briefly, a reaction mixture of 25 μL final volume containing 5 ng of FLT3 kinase (FLT3 kinase domain alone, Upstate), 5 μg of the substrate [(Poly (Glu-Tyr, 4:1), Sigma], kinase reaction buffer (20 mM MOPS pH 7.0, 1 mM EDTA, 5% glycerol, 0.01% Brij-35, 0.1% β-mercaptoethanol, 1 mg/mL BSA, 100 μM ATP, 0.1 μCi per well [^33P]-γ-ATP (2,500-3,000 Ci/mmol)), and a test compound (diluted from 9 μM to the desired final concentration by 4% DMSO) or DMSO (as the control) was incubated at 30° C. for 30 minutes. The reaction was stopped by adding 5 μL of 3% phosphoric acid solution. The resultant solution (30 μL) was later harvested by a UniFilter Plate GF/B (PerkinElmer) followed by adding 30 μL of the scintillation cocktail (MicroScint 20, PerkinElmer) to the well. The radioactivity retained on the filter membrane was measured by a luminescence counter (PerkinElmer). The results were analyzed by using linear regression software (GraphPad Prism 4; GraphPad Software Inc.).

Sequence of FLT3 kinase (FLT3 kinase domain alone, Upstate) (P36888 610-943): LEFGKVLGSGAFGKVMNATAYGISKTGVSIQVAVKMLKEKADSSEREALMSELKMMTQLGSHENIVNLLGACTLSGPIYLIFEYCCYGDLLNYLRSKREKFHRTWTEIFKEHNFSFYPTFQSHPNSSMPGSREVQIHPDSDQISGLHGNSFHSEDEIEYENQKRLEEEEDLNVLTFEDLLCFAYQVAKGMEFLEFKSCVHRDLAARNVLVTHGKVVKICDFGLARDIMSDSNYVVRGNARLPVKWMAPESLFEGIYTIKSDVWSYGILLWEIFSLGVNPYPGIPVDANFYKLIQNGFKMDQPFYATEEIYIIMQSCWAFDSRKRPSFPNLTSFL

Molecule | IC50
6-(2-Fluoro-phenyl)-4,7-dihydro-1-thia-4,5-diaza-cyclopenta[a]pentalene [Example-41] | < 100 nM
6-(3-Fluoro-phenyl)-4,7-dihydro-1-thia-4,5-diaza-cyclopenta[a]pentalene [Example-38] | 100 to 499 nM
6-[4-(4-Methyl-piperazin-1-yl)-phenyl]-2-pyridin-3-yl-4,7-dihydro-1-thia-4,5-diaza-cyclopenta[a]pentalene hydrochloride [Example-90] | < 100 nM
Brc1ccc(-c2[nH]nc3c2Cc2sccc2-3)cc1 [Example-1, 6-(4-Bromo-phenyl)-5,7-dihydro-1-thia-4,5-diaza-cyclopenta[a]-pentalene] | < 100 nM
COc1cccc(-c2n[nH]c3c2Cc2sccc2-3)c1 [Example-3, 6-(3-Methoxy-phenyl)-4,7-dihydro-1-thia-4,5-diaza-cyclopenta[a]pentalene] | 100 to 499 nM
COc1ccc(-c2n[nH]c3c2Cc2sccc2-3)c(OC)c1 [Example-4, 6-(2,4-Dimethoxy-phenyl)-4,7-dihydro-1-thia-4,5-diaza-cyclopenta[a]pentalene] | < 100 nM
O=[N+]([O-])c1ccc(-c2n[nH]c3c2Cc2sccc2-3)cc1 [Example-5, 6-(4-Nitro-phenyl)-4,7-dihydro-1-thia-4,5-diaza-cyclopenta[a]pentalene] | 100 to 499 nM
c1ccc(-c2n[nH]c3c2Cc2sccc2-3)cc1 [Example-6, 6-Phenyl-4,7-dihydro-1-thia-4,5-diaza-cyclopenta[a]pentalene] | 100 to 499 nM
Fc1ccc(Nc2ccc(-c3n[nH]c4c3Cc3sccc3-4)cc2)cc1 [Example-7, [4-(4,7-Dihydro-1-thia-4,5-diaza-cyclopenta[a]pentalen-6-yl)-phenyl]-(4-fluoro-phenyl)-amine] | 100 to 499 nM
COc1ccc(Nc2ccc(-c3n[nH]c4c3Cc3sccc3-4)cc2)cc1 [Example-8, [4-(4,7-Dihydro-1-thia-4,5-diaza-cyclopenta[a]pentalen-6-yl)-phenyl]-(4-methoxy-phenyl)-amine] | 100 to 499 nM
COc1cc(-c2ccc(-c3n[nH]c4c3Cc3sccc3-4)cc2)ccc1O [Example-9, 4′-(4,7-Dihydro-1-thia-4,5-diaza-cyclopenta[a]pentalen-6-yl)-3-methoxy-biphenyl-4-ol] | < 100 nM
Oc1ccc(-c2ccc(-c3n[nH]c4c3Cc3sccc3-4)cc2)cc1 [Example-11, 4′-(4,7-Dihydro-1-thia-4,5-diaza-cyclopenta[a]pentalen-6-yl)-biphenyl-4-ol] | < 100 nM
C(=Cc1ccc(-c2n[nH]c3c2Cc2sccc2-3)cc1)c1ccccc1 [Example-12, 6-(4-Styryl-phenyl)-4,7-dihydro-1-thia-4,5-diaza-cyclopenta[a]pentalene] | > 1000 nM
Nc1ccc(Nc2ccc(-c3n[nH]c4c3Cc3sccc3-4)cc2)cc1 [Example-13, N-[4-(4,7-Dihydro-1-thia-4,5-diaza-cyclopenta[a]pentalen-6-yl)-phenyl]-benzene-1,4-diamine] | 100 to 499 nM
COc1ccc(-c2ccc(-c3n[nH]c4c3Cc3sccc3-4)cc2)cc1OC [Example-14, 6-(3′,4′-Dimethoxy-biphenyl-4-yl)-4,7-dihydro-1-thia-4,5-diaza-cyclopenta[a]pent alene] | < 100 nM
N#Cc1ccc(-c2ccc(-c3n[nH]c4c3Cc3sccc3-4)cc2)cc1 [Example-15, 4′-(4,7-Dihydro-1-thia-4,5-diaza-cyclopenta[a]pentalen-6-yl)-biphenyl-4-carbonitrile] | < 100 nM
c1cncc(-c2n[nH]c3c2Cc2sccc2-3)c1 [Example-16, 6-Pyridin-3-yl-4,7-dihydro-1-thia-4,5-diaza-cyclopenta[a]pentalene] | 100 to 499 nM
c1cc(-c2n[nH]c3c2Cc2sccc2-3)co1 [Example-17, 6-Furan-3-yl-4,7-dihydro-1-thia-4,5-diaza-cyclopenta[a]pentalene] | 500 to 1000 nM
Clc1cc(Cl)cc(-c2ccc(-c3n[nH]c4c3Cc3sccc3-4)cc2)c1 [Example-18, 6-(3′,5′-Dichloro-biphenyl-4-yl)-4,7-dihydro-1-thia-4,5-diaza-cyclopenta[a]pentalene] | 100 to 499 nM
FC(F)(F)c1ccc(-c2ccc(-c3n[nH]c4c3Cc3sccc3-4)cc2)cc1 [Example-19, 6-(4′-Trifluoromethyl-biphenyl-4-yl)-4,7-dihydro-1-thia-4,5-diaza-cyclopenta[a]pentalene] | > 1000 nM
Brc1ccc(Nc2n[nH]c3c2Cc2sccc2-3)cc1 [Example-20, (4-Bromo-phenyl)-(4,7-dihydro-1-thia-4,5-diaza-cyclopenta[a]pentalen-6-yl)-amine] | 100 to 499 nM

Molecule | IC50
Clc1ccc(Nc2n[nH]c3c2Cc2sccc2-3)c(Cl)c1 [Example-21, (2,4-Dichloro-phenyl)-(4,7-dihydro-1-thia-4,5-diaza-cyclopenta[a]pentalen-6-yl)-amine] | 500 to 1000 nM
Ic1ccc(Nc2n[nH]c3c2Cc2sccc2-3)cc1 [Example-22, (4,7-Dihydro-1-thia-4,5-diaza-cyclopenta[a]pentalen-6-yl)-(4-iodo-phenyl)-amine] | 100 to 499 nM
COc1ccc(Nc2n[nH]c3c2Cc2sccc2-3)cc1 [Example-23, (4,7-Dihydro-1-thia-4,5-diaza-cyclopenta[a]pentalen-6-yl)-(4-methoxy-phenyl)-amine] | > 1000 nM
COc1ccc(Nc2n[nH]c3c2Cc2sccc2-3)cc1OC [Example-24, (4,7-Dihydro-1-thia-4,5-diaza-cyclopenta[a]pentalen-6-yl)-(3,4-dimethoxy-phenyl)-amine] | < 100 nM
Clc1cccc(Nc2[nH]nc3c2Cc2sccc2-3)c1 [Example-25, (3-Chloro-phenyl)-(4,7-dihydro-1-thia-4,5-diaza-cyclopenta[a]pentalen-6-yl)-amine] | < 100 nM
COc1cccc(Nc2n[nH]c3c2Cc2sccc2-3)c1 [Example-26, (4,7-Dihydro-1-thia-4,5-diaza-cyclopenta[a]pentalen-6-yl)-(3-methoxy-phenyl)-amine] | < 100 nM
Brc1cc2c(s1)Cc1c(-c3ccccc3)n[nH]c1-2 [Example-27] | < 100 nM
[O-][n+]1cccc(-c2n[nH]c3c2Cc2sccc2-3)c1 [Example-28, 6-(1-Oxy-pyridin-3-yl)-4,7-dihydro-1-thia-4,5-diaza-cyclopenta[a]pentalene] | > 1000 nM
FC(F)(F)c1cccc(Nc2n[nH]c3c2Cc2sccc2-3)c1 [Example-29, (4,7-Dihydro-1-thia-4,5-diaza-cyclopenta[a]pentalen-6-yl)-(3-trifluoromethyl-phenyl)-amine] | < 100 nM
Fc1cccc(Nc2n[nH]c3c2Cc2sccc2-3)c1 [Example-30, (4,7-Dihydro-1-thia-4,5-diaza-cyclopenta[a]pentalen-6-yl)-(3-fluoro-phenyl)-amine] | 100 to 499 nM
Clc1ccccc1Nc1n[nH]c2c1Cc1sccc1-2 [Example-31, (2-Chloro-phenyl)-(4,7-dihydro-1-thia-4,5-diaza-cyclopenta[a]pentalen-6-yl)-amine] | 100 to 499 nM
Clc1ccc(Nc2n[nH]c3c2Cc2sccc2-3)cc1 [Example-32, (4-Chloro-phenyl)-(4,7-dihydro-1-thia-4,5-diaza-cyclopenta[a]pentalen-6-yl)-amine] | 100 to 499 nM
Brc1ccc(-c2n[nH]c3c2Cc2sc(Br)cc2-3)cc1 [Example-33, 2-Bromo-6-(4-bromo-phenyl)-4,7-dihydro-1-thia-4,5-diaza-cyclopenta[a]pentalene] | < 100 nM
COc1ccc(-c2n[nH]c3c2Cc2sc(Br)cc2-3)cc1 [Example-34, 2-Bromo-6-(4-methoxy-phenyl)-4,7-dihydro-1-thia-4,5-diaza-cyclopenta[a]pentalene] | < 100 nM
FC(F)(F)c1ccc(Nc2n[nH]c3c2Cc2sccc2-3)cc1 [Example-35, (4,7-Dihydro-1-thia-4,5-diaza-cyclopenta[a]pentalen-6-yl)-(4-trifluoromethyl-phenyl)-amine] | 100 to 499 nM
Brc1cccc(Nc2n[nH]c3c2Cc2sccc2-3)c1 [Example-36, (3-Bromo-phenyl)-(4,7-dihydro-1-thia-4,5-diaza-cyclopenta[a]pentalen-6-yl)-amine] | 100 to 499 nM
Fc1cccc(Nc2ccc(-c3n[nH]c4c3Cc3sccc3-4)cc2)c1 [Example-37, [4-(4,7-Dihydro-1-thia-4,5-diaza-cyclopenta[a]pentalen-6-yl)-phenyl]-(3-fluoro-phenyl)-amine] | < 100 nM
Clc1cccc(-c2n[nH]c3c2Cc2sccc2-3)c1 [Example-39, 6-(3-Chloro-phenyl)-4,7-dihydro-1-thia-4,5-diaza-cyclopenta[a]pentalene] | < 100 nM
Fc1ccc(-c2n[nH]c3c2Cc2sccc2-3)cc1 [Example-40, 6-(4-Fluoro-phenyl)-4,7-dihydro-1-thia-4,5-diaza-cyclopenta[a]pentalene] | 100 to 499 nM
FC(F)(F)c1ccccc1Nc1n[nH]c2c1Cc1sccc1-2 [Example-42, (4,7-Dihydro-1-thia-4,5-diaza-cyclopenta[a]pentalen-6-yl)-(2-trifluoromethyl-phenyl)-amine] | > 1000 nM
FC(F)(F)c1cc(-c2n[nH]c3c2Cc2sccc2-3)cc(C(F)(F)F)c1 [Example-43, 6-(3,5-Bis-trifluoromethyl-phenyl)-4,7-dihydro-1-thia-4,5-diaza-cyclopenta[a]pen talene] | > 1000 nM
